Target: T1, Amine oxidase [flavin-containing] B (Homo sapiens, UniProt P27338)
T1 sequence (P27338 whole entry): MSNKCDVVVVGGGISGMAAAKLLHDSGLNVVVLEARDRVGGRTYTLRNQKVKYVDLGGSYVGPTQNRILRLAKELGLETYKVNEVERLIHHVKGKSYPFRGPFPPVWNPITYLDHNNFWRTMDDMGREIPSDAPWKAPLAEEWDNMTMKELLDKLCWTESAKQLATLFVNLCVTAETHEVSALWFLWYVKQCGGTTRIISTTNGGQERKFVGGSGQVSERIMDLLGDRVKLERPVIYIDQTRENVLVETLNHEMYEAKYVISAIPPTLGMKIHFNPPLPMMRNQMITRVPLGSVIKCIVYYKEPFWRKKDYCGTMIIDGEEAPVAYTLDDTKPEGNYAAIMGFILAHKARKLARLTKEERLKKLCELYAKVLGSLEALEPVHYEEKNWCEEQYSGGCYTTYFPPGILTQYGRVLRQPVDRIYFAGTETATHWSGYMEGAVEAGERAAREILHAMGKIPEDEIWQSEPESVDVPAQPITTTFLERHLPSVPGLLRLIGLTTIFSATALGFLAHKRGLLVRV
Test: Inhibition of MAO-B (unknown origin)

## CN(C)CCN1CCN(Cc2ccc(C(=O)Nc3nc4ccccc4s3)cc2)CC1
  IC50: 40 nM

— BindingDB's records for PubMed 39914143 (COMSATS University Islamabad)
